Laboratory results as given in patent publication US20190255086A1, “Compositions and Methods for Treating an Infection” (CMPD Licensing, LLC, priority 2015, published 2019).

Assays:
Bacteroides fragilis = test: Expected efficacy of anti-bacterial agents against various bacteria (Tables 5 and 6); settings: Gram: anaer
Clostridium difficile = test: as above; settings: Gram: anaer
Chlamydia pneumoniae = test: as above; settings: Gram: n/a
Chlamydia psittaci = settings: expected efficacy; Chlamydia psittaci; Gram: n/a
Chlamydia trachomatis = test: Expected efficacy of anti-bacterial agents against various bacteria (Tables 5 and 6); settings: Gram: n/a
Mycoplasma pneumoniae = test: as above; settings: Gram: n/a
Bordetella pertussis = test: as above; settings: Gram: neg
Brucella species = settings: expected efficacy; Brucella species; Gram: neg
Enterobacter aerogenes = test: Expected efficacy of anti-bacterial agents against various bacteria (Tables 5 and 6); settings: Gram: neg
Enterobacter cloacae = test: as above; settings: Gram: neg
Enterobacter sakazakii = test: as above; settings: Gram: neg
Escherichia coli = test: as above; settings: Gram: neg
[1] = tested on: Haemophilus parainfluenzae; test: as above; settings: Gram: neg
[2] = tested on: Klebsiella (Calymmatobacterium) granulomatis; test: as above; settings: Gram: neg
Klebsiella oxytoca = test: as above; settings: Gram: neg
Klebsiella pneumoniae = test: as above; settings: Gram: neg
Legionella pneumophila = settings: expected efficacy; Legionella pneumophila; Gram: neg
Moraxella catarrhalis = test: Expected efficacy of anti-bacterial agents against various bacteria (Tables 5 and 6); settings: Gram: neg
Neisseria gonorrhoeae = test: as above; settings: Gram: neg
Neisseria meningitidis = test: as above; settings: Gram: neg
Proteus mirabilis = test: as above; settings: Gram: neg
Proteus vulgaris = test: as above; settings: Gram: neg
Providencia rettgeri = test: as above; settings: Gram: neg
Providencia stuartii = test: as above; settings: Gram: neg
Pseudomonas aeruginosa = test: as above; settings: Gram: neg
Pseudomonas fluorescens = test: as above; settings: Gram: neg
Serratia marcescens = test: as above; settings: Gram: neg
Vibrio cholerae = test: as above; settings: Gram: neg
Corynebacterium jeikeium = test: as above; settings: Gram: pos
[3] = tested on: Corynebacterium urealyticum; test: as above; settings: Gram: pos
Diphtheroids = test: as above; settings: Gram: pos
Enterococcus faecalis = test: as above; settings: Gram: pos
Enterococcus faecium = test: as above; settings: Gram: pos
[4] = tested on: Methicillin resistant staph aureus (MRSA); test: as above; settings: Gram: pos
Peptostreptococcus = test: as above; settings: Gram: pos
[5] = tested on: Staphylococcus aureus (MSSA); test: as above; settings: Gram: pos
[6] = tested on: Staphylococcus epidermidis; test: as above; settings: Gram: pos
Streptococcus agalactiae = test: as above; settings: Gram: pos
Streptococcus pneumoniae = test: as above; settings: Gram: pos
Streptococcus pyogenes = test: as above; settings: Gram: pos
[7] = tested on: Viridans group streptococci; test: as above; settings: Gram: pos
Clostridium perfringens = settings: expected efficacy; Clostridium perfringens; Gram: anaer
Acinetobacter baumannii = test: Expected efficacy of anti-bacterial agents against various bacteria (Tables 5 and 6); settings: Gram: neg
[8] = tested on: Acinetobacter calcoaceticus; test: as above; settings: Gram: neg
Acinetobacter lwoffii = test: as above; settings: Gram: neg
Campylobacter jejuni = test: as above; settings: Gram: neg
Citrobacter diversus = test: as above; settings: Gram: neg
Citrobacter freundii = test: as above; settings: Gram: neg
Francisella tularensis = settings: expected efficacy; Francisella tularensis; Gram: neg
Haemophilus ducreyi = test: Expected efficacy of anti-bacterial agents against various bacteria (Tables 5 and 6); settings: Gram: neg
Haemophilus influenzae = test: as above; settings: Gram: neg
Morganella morganii = test: as above; settings: Gram: neg
Rickettsiae = settings: expected efficacy; Rickettsiae; Gram: neg
Salmonella typhi = test: Expected efficacy of anti-bacterial agents against various bacteria (Tables 5 and 6); settings: Gram: neg
Shigella boydii = test: as above; settings: Gram: neg
Shigella dysenteriae = test: as above; settings: Gram: neg
Shigella flexneri = test: as above; settings: Gram: neg
Shigella sonnei = test: as above; settings: Gram: neg
Yersinia pestis = settings: expected efficacy; Yersinia pestis; Gram: neg

Compound: Colistimethate
- Efficacy of various antibiotic agents (Bacteroides fragilis): no
- Efficacy of various antibiotic agents (Clostridium difficile): no
- Efficacy of various antibiotic agents (Chlamydia pneumoniae): no
- Efficacy of various antibiotic agents (Chlamydia psittaci): no
- Efficacy of various antibiotic agents (Chlamydia trachomatis): no
- Efficacy of various antibiotic agents (Mycoplasma pneumoniae): no
- Efficacy of various antibiotic agents (Bordetella pertussis): no
- Efficacy of various antibiotic agents (Brucella species): no
- Efficacy of various antibiotic agents (Enterobacter aerogenes): yes
- Efficacy of various antibiotic agents (Enterobacter cloacae): yes
- Efficacy of various antibiotic agents (Enterobacter sakazakii): yes
- Efficacy of various antibiotic agents (Escherichia coli): yes
- Efficacy of various antibiotic agents [1]: no
- Efficacy of various antibiotic agents [2]: yes
- Efficacy of various antibiotic agents (Klebsiella oxytoca): yes
- Efficacy of various antibiotic agents (Klebsiella pneumoniae): yes
- Efficacy of various antibiotic agents (Legionella pneumophila): no
- Efficacy of various antibiotic agents (Moraxella catarrhalis): no
- Efficacy of various antibiotic agents (Neisseria gonorrhoeae): no
- Efficacy of various antibiotic agents (Neisseria meningitidis): no
- Efficacy of various antibiotic agents (Proteus mirabilis): no
- Efficacy of various antibiotic agents (Proteus vulgaris): no
- Efficacy of various antibiotic agents (Providencia rettgeri): no
- Efficacy of various antibiotic agents (Providencia stuartii): no
- Efficacy of various antibiotic agents (Pseudomonas aeruginosa): yes
- Efficacy of various antibiotic agents (Pseudomonas fluorescens): yes
- Efficacy of various antibiotic agents (Serratia marcescens): no
- Efficacy of various antibiotic agents (Vibrio cholerae): no
- Efficacy of various antibiotic agents (Corynebacterium jeikeium): no
- Efficacy of various antibiotic agents [3]: no
- Efficacy of various antibiotic agents (Diphtheroids): no
- Efficacy of various antibiotic agents (Enterococcus faecalis): no
- Efficacy of various antibiotic agents (Enterococcus faecium): no
- Efficacy of various antibiotic agents [4]: no
- Efficacy of various antibiotic agents (Peptostreptococcus): no
- Efficacy of various antibiotic agents [5]: no
- Efficacy of various antibiotic agents [6]: no
- Efficacy of various antibiotic agents (Streptococcus agalactiae): no
- Efficacy of various antibiotic agents (Streptococcus pneumoniae): no
- Efficacy of various antibiotic agents (Streptococcus pyogenes): no
- Efficacy of various antibiotic agents [7]: no

Compound: CO/N=C(\C(=O)N[C@@H]1C(=O)N2C(C(=O)O)=C(CSc3nc(=O)c(=O)[nH]n3C)CS[C@H]12)c1csc(N)n1 [Ceftriaxone]
- Efficacy of various antibiotic agents (Bacteroides fragilis): yes
- Efficacy of various antibiotic agents (Clostridium difficile): no
- Efficacy of various antibiotic agents (Clostridium perfringens): yes
- Efficacy of various antibiotic agents (Chlamydia pneumoniae): no
- Efficacy of various antibiotic agents (Chlamydia psittaci): no
- Efficacy of various antibiotic agents (Chlamydia trachomatis): no
- Efficacy of various antibiotic agents (Mycoplasma pneumoniae): no
- Efficacy of various antibiotic agents (Acinetobacter baumannii): no
- Efficacy of various antibiotic agents [8]: no
- Efficacy of various antibiotic agents (Acinetobacter lwoffii): no
- Efficacy of various antibiotic agents (Bordetella pertussis): no
- Efficacy of various antibiotic agents (Campylobacter jejuni): no
- Efficacy of various antibiotic agents (Citrobacter diversus): yes
- Efficacy of various antibiotic agents (Citrobacter freundii): yes
- Efficacy of various antibiotic agents (Enterobacter aerogenes): yes
- Efficacy of various antibiotic agents (Enterobacter cloacae): yes
- Efficacy of various antibiotic agents (Enterobacter sakazakii): yes
- Efficacy of various antibiotic agents (Escherichia coli): yes
- Efficacy of various antibiotic agents (Francisella tularensis): no
- Efficacy of various antibiotic agents (Haemophilus ducreyi): yes
- Efficacy of various antibiotic agents (Haemophilus influenzae): yes
- Efficacy of various antibiotic agents [1]: yes
- Efficacy of various antibiotic agents [2]: yes
- Efficacy of various antibiotic agents (Klebsiella oxytoca): yes
- Efficacy of various antibiotic agents (Klebsiella pneumoniae): yes
- Efficacy of various antibiotic agents (Legionella pneumophila): no
- Efficacy of various antibiotic agents (Moraxella catarrhalis): yes
- Efficacy of various antibiotic agents (Morganella morganii): yes
- Efficacy of various antibiotic agents (Neisseria gonorrhoeae): yes
- Efficacy of various antibiotic agents (Neisseria meningitidis): yes
- Efficacy of various antibiotic agents (Proteus mirabilis): yes
- Efficacy of various antibiotic agents (Proteus vulgaris): yes
- Efficacy of various antibiotic agents (Providencia rettgeri): yes
- Efficacy of various antibiotic agents (Providencia stuartii): yes
- Efficacy of various antibiotic agents (Pseudomonas aeruginosa): no
- Efficacy of various antibiotic agents (Rickettsiae): no
- Efficacy of various antibiotic agents (Salmonella typhi): yes
- Efficacy of various antibiotic agents (Serratia marcescens): yes
- Efficacy of various antibiotic agents (Shigella boydii): yes
- Efficacy of various antibiotic agents (Shigella dysenteriae): yes
- Efficacy of various antibiotic agents (Shigella flexneri): yes
- Efficacy of various antibiotic agents (Shigella sonnei): yes
- Efficacy of various antibiotic agents (Vibrio cholerae): no
- Efficacy of various antibiotic agents (Yersinia pestis): no
- Efficacy of various antibiotic agents (Corynebacterium jeikeium): no
- Efficacy of various antibiotic agents [3]: no
- Efficacy of various antibiotic agents (Diphtheroids): no
- Efficacy of various antibiotic agents (Enterococcus faecalis): no
- Efficacy of various antibiotic agents (Enterococcus faecium): no
- Efficacy of various antibiotic agents [4]: no
- Efficacy of various antibiotic agents (Peptostreptococcus): yes
- Efficacy of various antibiotic agents [5]: yes
- Efficacy of various antibiotic agents [6]: yes
- Efficacy of various antibiotic agents (Streptococcus agalactiae): yes
- Efficacy of various antibiotic agents (Streptococcus pneumoniae): yes
- Efficacy of various antibiotic agents (Streptococcus pyogenes): yes
- Efficacy of various antibiotic agents [7]: yes
